Measured values from ChEMBL document CHEMBL1140636, “Targeting cytochrome P450 enzymes: a new approach in anti-cancer drug development” (Bioorg Med Chem, 2007).

How the values were obtained:
[1] = target: T1, Cytochrome P450 1B1 (Homo sapiens, UniProt Q16678); assay: Inhibition of CYP1B1; assay type: ADME
T1 sequence (Q16678 whole entry): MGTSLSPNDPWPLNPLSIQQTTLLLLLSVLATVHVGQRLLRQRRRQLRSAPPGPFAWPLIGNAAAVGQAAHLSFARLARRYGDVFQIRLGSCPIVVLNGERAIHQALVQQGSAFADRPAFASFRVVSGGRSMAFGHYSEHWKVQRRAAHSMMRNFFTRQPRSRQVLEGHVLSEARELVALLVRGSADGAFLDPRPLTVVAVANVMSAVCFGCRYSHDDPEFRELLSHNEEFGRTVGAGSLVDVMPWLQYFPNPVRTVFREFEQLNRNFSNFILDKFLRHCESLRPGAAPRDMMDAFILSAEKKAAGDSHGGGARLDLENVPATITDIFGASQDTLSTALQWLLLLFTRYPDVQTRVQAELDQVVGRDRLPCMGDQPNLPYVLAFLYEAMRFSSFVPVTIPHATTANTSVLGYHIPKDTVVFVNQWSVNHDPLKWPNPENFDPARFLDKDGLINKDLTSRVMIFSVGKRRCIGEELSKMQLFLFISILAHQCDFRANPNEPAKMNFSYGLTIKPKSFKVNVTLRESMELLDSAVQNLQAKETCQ

[2] = target: T2, Cytochrome P450 1A2 (Homo sapiens, UniProt P05177); assay: Inhibition of CYP1A2; assay type: ADME
T2 sequence (P05177 whole entry): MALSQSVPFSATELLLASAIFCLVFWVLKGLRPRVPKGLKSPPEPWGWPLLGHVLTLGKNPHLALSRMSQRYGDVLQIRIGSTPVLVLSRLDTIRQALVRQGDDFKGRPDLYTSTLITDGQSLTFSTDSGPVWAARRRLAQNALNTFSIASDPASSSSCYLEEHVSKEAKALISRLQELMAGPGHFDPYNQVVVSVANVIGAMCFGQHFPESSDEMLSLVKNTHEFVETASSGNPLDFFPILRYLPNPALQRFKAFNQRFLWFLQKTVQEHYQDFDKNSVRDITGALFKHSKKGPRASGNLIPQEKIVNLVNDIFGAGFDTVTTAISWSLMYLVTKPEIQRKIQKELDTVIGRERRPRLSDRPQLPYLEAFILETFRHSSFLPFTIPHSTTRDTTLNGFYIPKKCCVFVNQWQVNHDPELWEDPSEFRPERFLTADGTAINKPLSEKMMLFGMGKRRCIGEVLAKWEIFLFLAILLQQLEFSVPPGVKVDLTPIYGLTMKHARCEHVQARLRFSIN

[3] = target: T3, Cytochrome P450 1A1 (Homo sapiens, UniProt P04798); assay: Inhibition of CYP1A1; assay type: ADME
T3 sequence (P04798 whole entry): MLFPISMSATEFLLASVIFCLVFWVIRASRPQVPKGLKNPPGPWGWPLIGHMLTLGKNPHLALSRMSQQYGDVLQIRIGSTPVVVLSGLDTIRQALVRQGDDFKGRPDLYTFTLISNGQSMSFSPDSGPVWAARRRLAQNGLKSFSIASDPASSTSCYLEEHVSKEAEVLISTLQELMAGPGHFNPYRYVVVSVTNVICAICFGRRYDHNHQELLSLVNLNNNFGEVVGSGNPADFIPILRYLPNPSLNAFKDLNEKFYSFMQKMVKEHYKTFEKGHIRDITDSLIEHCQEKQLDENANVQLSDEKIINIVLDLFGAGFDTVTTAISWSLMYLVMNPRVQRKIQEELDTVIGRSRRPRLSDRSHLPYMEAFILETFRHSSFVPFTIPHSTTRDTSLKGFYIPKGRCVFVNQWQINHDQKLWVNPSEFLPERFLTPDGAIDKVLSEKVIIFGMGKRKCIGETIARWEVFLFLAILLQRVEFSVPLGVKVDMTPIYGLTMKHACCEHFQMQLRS

[4] = target: T4, 25-hydroxyvitamin D-1 alpha hydroxylase, mitochondrial (Homo sapiens, UniProt O15528); assay: Inhibition of CYP27B1 in human keratinocytes; assay type: cell-based
T4 sequence (O15528 whole entry): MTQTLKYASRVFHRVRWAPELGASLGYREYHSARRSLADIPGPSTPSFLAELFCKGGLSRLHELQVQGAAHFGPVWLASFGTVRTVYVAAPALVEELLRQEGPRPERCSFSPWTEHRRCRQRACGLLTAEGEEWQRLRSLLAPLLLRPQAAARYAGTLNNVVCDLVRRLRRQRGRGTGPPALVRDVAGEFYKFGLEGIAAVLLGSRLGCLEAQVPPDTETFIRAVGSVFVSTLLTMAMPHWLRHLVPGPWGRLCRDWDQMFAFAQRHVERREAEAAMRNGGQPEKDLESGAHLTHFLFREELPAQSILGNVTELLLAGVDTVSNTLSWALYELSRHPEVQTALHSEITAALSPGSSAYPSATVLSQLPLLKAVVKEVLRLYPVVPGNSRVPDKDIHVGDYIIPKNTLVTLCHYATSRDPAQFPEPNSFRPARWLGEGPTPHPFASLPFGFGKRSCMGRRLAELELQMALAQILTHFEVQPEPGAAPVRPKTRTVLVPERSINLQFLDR

[5] = target: T5, 1,25-dihydroxyvitamin D(3) 24-hydroxylase, mitochondrial (Homo sapiens, UniProt Q07973); assay: Inhibition of CYP24 in human keratinocytes; assay type: cell-based
T5 sequence (Q07973 whole entry): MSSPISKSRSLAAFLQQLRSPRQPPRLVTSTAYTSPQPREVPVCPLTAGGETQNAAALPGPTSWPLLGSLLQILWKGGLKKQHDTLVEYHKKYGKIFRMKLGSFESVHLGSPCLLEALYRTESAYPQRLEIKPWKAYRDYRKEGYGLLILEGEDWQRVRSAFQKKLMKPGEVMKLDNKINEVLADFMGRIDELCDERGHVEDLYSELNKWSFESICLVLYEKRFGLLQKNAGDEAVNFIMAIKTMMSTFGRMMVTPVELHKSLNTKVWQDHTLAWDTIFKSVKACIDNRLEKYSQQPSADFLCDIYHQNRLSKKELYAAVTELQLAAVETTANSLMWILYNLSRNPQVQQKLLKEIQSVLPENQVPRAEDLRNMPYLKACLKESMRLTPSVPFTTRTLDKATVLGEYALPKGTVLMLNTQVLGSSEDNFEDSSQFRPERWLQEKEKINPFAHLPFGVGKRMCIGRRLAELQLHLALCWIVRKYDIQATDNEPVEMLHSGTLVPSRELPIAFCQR

[6] = target: T6, Sterol 26-hydroxylase, mitochondrial (Homo sapiens, UniProt Q02318); assay: Inhibition of CYP27A1
T6 sequence (Q02318 whole entry): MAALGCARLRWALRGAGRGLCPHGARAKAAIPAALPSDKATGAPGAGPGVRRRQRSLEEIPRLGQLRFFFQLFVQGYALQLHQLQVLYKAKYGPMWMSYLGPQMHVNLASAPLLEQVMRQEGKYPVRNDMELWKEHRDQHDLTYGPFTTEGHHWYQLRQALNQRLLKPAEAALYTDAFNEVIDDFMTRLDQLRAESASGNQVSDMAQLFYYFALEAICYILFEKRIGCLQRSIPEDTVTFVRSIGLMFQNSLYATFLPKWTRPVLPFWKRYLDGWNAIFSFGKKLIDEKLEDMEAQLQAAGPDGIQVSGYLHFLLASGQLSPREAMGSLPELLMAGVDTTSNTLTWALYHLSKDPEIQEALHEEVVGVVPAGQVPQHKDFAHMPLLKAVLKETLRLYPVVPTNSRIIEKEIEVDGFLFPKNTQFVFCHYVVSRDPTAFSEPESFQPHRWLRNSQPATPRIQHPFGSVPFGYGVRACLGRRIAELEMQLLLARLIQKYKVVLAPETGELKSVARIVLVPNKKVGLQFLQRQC

[7] = target: T4, 25-hydroxyvitamin D-1 alpha hydroxylase, mitochondrial; assay: Inhibition of CYP27B1
[8] = target: T5, 1,25-dihydroxyvitamin D(3) 24-hydroxylase, mitochondrial; assay: Inhibition of CYP24
[9] = target: T7, Cytochrome P450 26A1 (Homo sapiens, UniProt O43174); assay: Inhibition of CYP26
T7 sequence (O43174 whole entry): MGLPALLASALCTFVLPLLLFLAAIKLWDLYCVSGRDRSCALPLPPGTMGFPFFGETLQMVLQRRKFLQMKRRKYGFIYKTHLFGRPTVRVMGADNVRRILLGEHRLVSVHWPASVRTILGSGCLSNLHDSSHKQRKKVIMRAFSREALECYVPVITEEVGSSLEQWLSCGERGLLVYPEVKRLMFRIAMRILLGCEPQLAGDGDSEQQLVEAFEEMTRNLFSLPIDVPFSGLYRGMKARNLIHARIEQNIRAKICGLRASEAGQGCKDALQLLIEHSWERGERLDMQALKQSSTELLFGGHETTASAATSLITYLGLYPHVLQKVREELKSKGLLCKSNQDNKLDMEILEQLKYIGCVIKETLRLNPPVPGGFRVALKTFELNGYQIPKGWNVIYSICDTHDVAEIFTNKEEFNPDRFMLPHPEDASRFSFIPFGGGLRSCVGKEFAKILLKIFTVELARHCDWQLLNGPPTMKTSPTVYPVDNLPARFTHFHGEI

[10] = target: T8, Aryl hydrocarbon receptor (Homo sapiens, UniProt P35869); assay: Inhibition of aryl hydrocarbon receptor
T8 sequence (P35869 whole entry): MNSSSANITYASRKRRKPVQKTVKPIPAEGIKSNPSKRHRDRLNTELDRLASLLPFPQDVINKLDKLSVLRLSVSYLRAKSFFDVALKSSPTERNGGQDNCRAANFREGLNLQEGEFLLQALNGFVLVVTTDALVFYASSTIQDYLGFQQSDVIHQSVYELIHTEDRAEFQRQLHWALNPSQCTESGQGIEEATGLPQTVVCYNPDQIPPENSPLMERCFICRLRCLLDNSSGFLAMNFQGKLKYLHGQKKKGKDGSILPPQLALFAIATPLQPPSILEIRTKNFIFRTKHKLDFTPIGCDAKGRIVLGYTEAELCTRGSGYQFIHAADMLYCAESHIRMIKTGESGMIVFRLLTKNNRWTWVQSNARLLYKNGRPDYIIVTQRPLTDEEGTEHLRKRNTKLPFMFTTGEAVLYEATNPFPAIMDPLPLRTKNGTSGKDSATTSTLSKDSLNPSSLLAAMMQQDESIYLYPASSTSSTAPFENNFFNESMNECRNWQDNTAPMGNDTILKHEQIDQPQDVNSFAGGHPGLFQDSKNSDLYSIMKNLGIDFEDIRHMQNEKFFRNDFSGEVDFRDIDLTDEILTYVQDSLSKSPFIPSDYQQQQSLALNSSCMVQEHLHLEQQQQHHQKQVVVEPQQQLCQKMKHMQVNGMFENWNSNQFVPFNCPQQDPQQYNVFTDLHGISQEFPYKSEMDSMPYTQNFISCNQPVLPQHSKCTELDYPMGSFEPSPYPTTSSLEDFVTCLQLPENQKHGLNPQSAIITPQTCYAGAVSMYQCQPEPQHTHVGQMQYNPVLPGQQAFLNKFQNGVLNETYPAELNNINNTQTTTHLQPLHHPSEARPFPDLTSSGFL

[11] = Inhibition of cigarette smoke condensate-induced growth of immortalized human BEAS-2B cells by soft agar colony assay; assay type: functional

Structure (SMILES) | IC50 [1] | IC50 [2] | IC50 [3] | further results
COc1cc(/C=C\c2cccs2)cc(OC)c1 | 0.002 µM | 0.011 µM | 0.061 µM | 
CC#Cc1ccc2c(ccc3ccccc32)c1 | 0.03 µM | 0.06 µM | 0.15 µM | 
O=C(NCC(c1ccccc1)n1ccnc1)c1ccc(-c2ccc(Cl)cc2)cc1 (stereo not drawn) |  |  |  | IC50 [4]: 0.616 µM; IC50 [5]: 0.015 µM
C=C1/C(=C\C=C2/CCC[C@]3(C)C([C@H](C)CC[S+](=N)([O-])c4ccccc4)=CCC23)C[C@@H](O)C[C@@H]1O (stereo partly drawn) |  |  |  | IC50 [6]: > 1 µM; IC50 [7]: 0.554 µM; IC50 [8]: 0.0074 µM
Clc1cccc(C(c2ccc3nc[nH]c3c2)N2C=NCC2)c1 (stereo not drawn) |  |  |  | IC50 [9]: 2.2 µM
O=c1c(O)c(-c2ccc(O)cc2)oc2cc(O)cc(O)c12 [KAEMPFEROL] |  |  |  | IC50 [10]: 0.028 µM; IC90 [11]: 10 µM
Clc1ccc(-c2cc(Cl)c(Cl)c(Cl)c2)cc1Cl [POLYCHLORINATED BIPHENYL 126] | 0.011 µM |  |  | 
c1cc2ccc3cccc4ccc(c1)c2c34 [PYRENE] | 0.002 µM | 0.007 µM | 0.041 µM | 
